Laboratory results published in PubChem BioAssay AID330 (DTP/NCI, 2004).
Several values for one entry are separate records, joined by “and”; a condition that tells them apart may be missing. Identical values can stand only once. Toxic doses and inconclusive results are not listed. How the source made its calls: active means survival T/C of 150% or more; inactive means T/C below 125% in these data. Bridge positions count the residues as written; N and C are the ends. Peptide text beside a SMILES is read from it. I, II: the chains in the order shown. * marks the point of attachment. Cbz = O=C(OCc1ccccc1)*

System: P388 leukemia ip, CD2F1 mice, survival T/C
Test: NCI In Vivo Anticancer Drug Screen. Data for tumor model P388 Leukemia (intraperitoneal) in CD2F1 (CDF1) mice
Settings: endpoint: median survival time, higher = longer survival
Procedure, shortened: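 Mice carrying the transplanted tumor received test compound or vehicle. Survival was recorded in each group, and the value is the treated-group measurement divided by that of the vehicle-treated control group.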

[1] = dose: 60.0 mg/kg/injection, schedule: Q01DX005 (ip), vehicle: saline with Tween-80
[2] = dose: 120.0 mg/kg/injection, schedule: Q01DX005 (ip), vehicle: saline with Tween-80
[3] = dose: 240.0 mg/kg/injection, schedule: Q01DX005 (ip), vehicle: saline with Tween-80
[4] = dose: 50.0 mg/kg/injection, schedule: Q01DX009 (ip), vehicle: saline
[5] = dose: 100.0 mg/kg/injection, schedule: Q01DX009 (ip), vehicle: saline
[6] = dose: 200.0 mg/kg/injection, schedule: Q01DX009 (ip), vehicle: saline
[7] = dose: 25.0 mg/kg/injection, schedule: Q01DX009 (ip), vehicle: saline with Tween-80
[8] = dose: 50.0 mg/kg/injection, schedule: Q01DX009 (ip), vehicle: saline with Tween-80
[9] = dose: 100.0 mg/kg/injection, schedule: Q01DX009 (ip), vehicle: saline with Tween-80
[10] = dose: 200.0 mg/kg/injection, schedule: Q01DX009 (ip), vehicle: saline with Tween-80

Measured: T/C

COc1ccc(C2CC(C)(N3CCCC3)Oc3cc4c(cc32)OCO4)cc1 (stereo not given)
inactive: [1] 101 % of control | [2] 92 % of control | [3] 98 % of control

CC1(C)SC2C(NC(=O)C(N)c3ccc(O)cc3)C(=O)N2C1C(=O)O (stereo not given)
inactive: [4] 113 % of control | [5] 116 % of control | [6] 113 % of control

c1cc2c(ccc3c4c([nH]c32)CCCC4)cn1
inactive: dose: 12.5 mg/kg/injection, schedule: Q01DX009 (ip), vehicle: saline with Tween-80 101 % of control | [7] 105 % of control | [8] 99 % of control | [9] 98 % of control

O=C1c2ccccc2C2=Cc3ccccc3C(O)N12 (stereo not given)
inactive: [1] 104 % of control | [2] 100 % of control | [3] 100 % of control

CCNc1ccc2ccccc2c1N=Nc1ccc(N=Nc2ccccc2)cc1
inactive: [7] 90 % of control | [8] 90 % of control and 94 % of control | [9] 95 % of control | [10] 100 % of control

CCOC(=O)C(Br)c1cccc(OC)c1 (stereo not given)
inactive: [9] 91 % of control | [10] 95 % of control | dose: 400.0 mg/kg/injection, schedule: Q01DX009 (ip), vehicle: saline with Tween-80 95 % of control

O=c1oc2ccccc2n1P(=O)(N1CCOCC1)N1CCOCC1
inactive: [4] 100 % of control | [5] 98 % of control | [6] 95 % of control

CC(O)(C#Cc1ccccc1)c1nc2ccccc2s1 (stereo not given)
inactive: dose: 60.0 mg/kg/injection, schedule: Q01DX005 (ip), vehicle: Klucel (hydroxypropylcellulose) (HPC) 101 % of control | dose: 120.0 mg/kg/injection, schedule: Q01DX005 (ip), vehicle: Klucel (hydroxypropylcellulose) (HPC) 101 % of control | dose: 240.0 mg/kg/injection, schedule: Q01DX005 (ip), vehicle: Klucel (hydroxypropylcellulose) (HPC) 100 % of control

[Cl][Pt+2][Cl].[NH-]C(C(=O)O)C([NH-])C(=O)O (stereo not given)
inactive: dose: 6.25 mg/kg/injection, schedule: Q04DX002 (ip), vehicle: saline 96 % of control | dose: 12.5 mg/kg/injection, schedule: Q04DX002 (ip), vehicle: saline 96 % of control | dose: 25.0 mg/kg/injection, schedule: Q04DX002 (ip), vehicle: saline 100 % of control | dose: 50.0 mg/kg/injection, schedule: Q04DX002 (ip), vehicle: saline 117 % of control | dose: 100.0 mg/kg/injection, schedule: Q04DX002 (ip), vehicle: saline 101 % of control | dose: 200.0 mg/kg/injection, schedule: Q04DX002 (ip), vehicle: saline 97 % of control

CC1NC(=O)C(NC(=O)OCc2ccccc2)COC(=O)C(C(C)C)NC(=O)C2CSSCC(NC1=O)C(=O)NC(C(C)C)C(=O)OCC(NC(=O)OCc1ccccc1)C(=O)NC(C)C(=O)N2 (stereo not given) (I: Cbz-SACV / II: Cbz-SACV; ester I:1-II:C, I:C-II:1; disulfide I:3-II:3; configuration not given here)
inactive: dose: 1.25 mg/kg/injection, schedule: Q01DX005 (ip), vehicle: Klucel (hydroxypropylcellulose) (HPC) 101 % of control | dose: 2.5 mg/kg/injection, schedule: Q01DX005 (ip), vehicle: Klucel (hydroxypropylcellulose) (HPC) 101 % of control | dose: 5.0 mg/kg/injection, schedule: Q01DX005 (ip), vehicle: Klucel (hydroxypropylcellulose) (HPC) 99 % of control | dose: 10.0 mg/kg/injection, schedule: Q01DX005 (ip), vehicle: Klucel (hydroxypropylcellulose) (HPC) 96 % of control | dose: 12.5 mg/kg/injection, schedule: Q01DX005 (ip), vehicle: Klucel (hydroxypropylcellulose) (HPC) 96 % of control | dose: 25.0 mg/kg/injection, schedule: Q01DX005 (ip), vehicle: Klucel (hydroxypropylcellulose) (HPC) 96 % of control | dose: 50.0 mg/kg/injection, schedule: Q01DX005 (ip), vehicle: Klucel (hydroxypropylcellulose) (HPC) 99 % of control

CC(CN)c1ccccc1 (stereo not given)
inactive: dose: 12.5 mg/kg/injection, schedule: Q01DX009 (ip), vehicle: saline 111 % of control | dose: 25.0 mg/kg/injection, schedule: Q01DX009 (ip), vehicle: saline 101 % of control | [4] 101 % of control and 103 % of control

CC(=O)c1c(C(=O)O)n([O-])c2ccccc2[n+]1=O
inactive: dose: 50.0 mg/kg/injection, schedule: Q01DX005 (ip), vehicle: saline with Tween-80 97 % of control | dose: 100.0 mg/kg/injection, schedule: Q01DX005 (ip), vehicle: saline with Tween-80 94 % of control | dose: 200.0 mg/kg/injection, schedule: Q01DX005 (ip), vehicle: saline with Tween-80 112 % of control
